Measured values as given in patent US20050100983A1, “Cell-free methods for identifying compounds that affect toll-like receptor 9 (TLR9) signaling” (Coley Pharmaceutical GmbH, priority 2003, published 2005).
Ends that are not written are not given here. * marks the point of attachment. X1 = 2,3‑bis(palmitoyloxy)‑(2RS)‑propyl, CCCCCCCCCCCCCCCC(=O)OCC(C*)OC(=O)CCCCCCCCCCCCCCC; Palmitoyl = CCCCCCCCCCCCCCCC(=O)*

How the values were obtained:
[1] = target: T1, mTLR2ect (TLR2-Pam3Cys interaction) (Mus musculus, UniProt Q9QUN7); experiment: SPR biosensor analysis of TLR2-Pam3Cys binding; set-up: species or system murine; conditions: PHC as reference
T1 construct: mTLR2ect (aa 1-587); made in house
T1 sequence (Q9QUN7 25-587): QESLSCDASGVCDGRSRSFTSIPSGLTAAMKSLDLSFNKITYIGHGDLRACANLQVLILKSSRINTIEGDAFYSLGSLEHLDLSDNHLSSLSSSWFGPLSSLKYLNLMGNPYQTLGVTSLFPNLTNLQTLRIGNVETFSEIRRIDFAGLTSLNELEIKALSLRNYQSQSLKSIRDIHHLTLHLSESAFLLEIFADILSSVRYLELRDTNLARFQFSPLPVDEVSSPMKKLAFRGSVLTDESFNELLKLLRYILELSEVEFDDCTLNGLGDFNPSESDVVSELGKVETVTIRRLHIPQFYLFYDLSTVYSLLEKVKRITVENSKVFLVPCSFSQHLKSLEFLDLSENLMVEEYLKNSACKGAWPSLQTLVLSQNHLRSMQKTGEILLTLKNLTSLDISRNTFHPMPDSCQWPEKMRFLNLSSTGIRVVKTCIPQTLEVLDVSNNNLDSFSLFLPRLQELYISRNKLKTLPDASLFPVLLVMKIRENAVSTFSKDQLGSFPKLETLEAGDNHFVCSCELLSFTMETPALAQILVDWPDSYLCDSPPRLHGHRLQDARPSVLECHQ

TLR9-CpG-DNA interaction = target: T2, TLR9-CpG-DNA interaction (Mus musculus, UniProt Q9EQU3); experiment: SPR biosensor analysis of inhibitors on TLR9-CpG-DNA interaction; format: binding, murine; conditions: SPR, 200 nM TLR9, immobilized CpG-DNA 1668
T2 construct: mTLR9ect (aa 1-816); made in house
T2 sequence (Q9EQU3 26-816): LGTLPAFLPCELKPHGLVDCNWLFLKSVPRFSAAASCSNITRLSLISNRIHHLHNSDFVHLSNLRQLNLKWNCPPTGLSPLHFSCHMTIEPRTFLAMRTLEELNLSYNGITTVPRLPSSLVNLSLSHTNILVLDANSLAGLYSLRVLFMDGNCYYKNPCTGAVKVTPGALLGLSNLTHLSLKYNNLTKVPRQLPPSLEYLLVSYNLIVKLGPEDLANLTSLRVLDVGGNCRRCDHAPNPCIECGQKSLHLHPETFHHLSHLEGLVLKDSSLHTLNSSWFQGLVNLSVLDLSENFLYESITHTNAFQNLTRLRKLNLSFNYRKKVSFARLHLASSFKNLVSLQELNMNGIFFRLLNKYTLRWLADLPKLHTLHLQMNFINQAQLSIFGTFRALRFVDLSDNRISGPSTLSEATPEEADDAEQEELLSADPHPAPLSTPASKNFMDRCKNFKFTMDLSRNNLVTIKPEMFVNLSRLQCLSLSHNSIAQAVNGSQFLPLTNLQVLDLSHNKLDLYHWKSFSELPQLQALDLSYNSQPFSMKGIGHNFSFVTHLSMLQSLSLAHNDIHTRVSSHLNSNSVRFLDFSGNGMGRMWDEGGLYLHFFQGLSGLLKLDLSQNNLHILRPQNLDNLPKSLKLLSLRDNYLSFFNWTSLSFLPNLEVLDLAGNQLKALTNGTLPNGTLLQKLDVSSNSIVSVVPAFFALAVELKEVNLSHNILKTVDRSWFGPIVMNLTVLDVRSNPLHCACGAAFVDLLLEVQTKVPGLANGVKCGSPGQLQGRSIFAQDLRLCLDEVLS
Description: Biotinylated CpG-DNA 1668 (SEQ ID NO:1) and non-CpG-DNA 1668GC (SEQ ID NO:3) were immobilized on streptavidin sensor chip flow cells 1 and 2, respectively.
FIG. 2B is a graph depicting SPR biosensor analysis of quinoquine (QC) on TLR9-PAMP interaction. Biotinylated CpG-DNA 1668 (SEQ ID NO:1) and non-CpG-DNA 1668GC (SEQ ID NO:3) were immobilized on streptavidin sensor chip flow cells 1 and 2, respectively. 200 nM TLR9 and indicated concentrations of quinoquine were injected and sensorgrams recorded.
SPR biosensor analysis. Real-time binding of TLR9 or TLR2 was measured by surface plasmon resonance biosensor technology using the BiaCore X system (Uppsala, Sweden). For analysis of TLR9 and TLR2 interaction, biotinylated CpG-DNA and non-CpG-DNA, or biotinylated Pam3CysK4 and PHCK4, respectively, were loaded in running buffer (50 mM MES, 150 mM NaCl, 1 mM MgCl2 at pH 6.5) on SA chips precoated with streptavidin (Biacore AB, Uppsala, Sweden). Non-CpG-DNA or PHCK4 (Wiesmuller K H et al. (1989) Vaccine 7:29-33) served as reference for CpG-DNA and Pam3CysK4 interaction (structure or sequence in Table 1). […] TLR proteins were introduced at 200 nM or as indicated in 40 μl running buffer at a flow rate of 10 μl/min. Binding was measured at 25° C. for 750 s (delay time 300 s). […] Sensorgrams were recorded and kinetic data were calculated by the BiaCore Evaluation program (Biacore, version 3.0.1). Regeneration of the chip was performed by injection of 10 μl 50 mM NaOH, 1 M NaCl and extensive re-equilibration.

murine TLR9 = experiment: NF-κB luciferase assay, HEK 293 cells transfected with murine TLR9; format: cell-based; conditions: TLR9-transfected HEK 293 cells, 1 μM CpG-DNA, inhibitor added 15 min prior to stimulation
Description: Activation is expressed as fold induction compared to no stimulation. NF-κB luciferase assay. For monitoring transient NF-κB activation, 3×10^6 HEK 293 cells were electroporated at 200 volt and 950 μF with 20 ng of a NF-κB luciferase reporter plasmid (kindly provided by Patrick Baeuerle, Munich, Germany) and 1 μg mTLR2 (kindly provided by Tularik, Inc., South San Francisco, USA), mTLR9, or mTLR9-mut expression plasmid. Cells were seeded at 10^5 cells per well and after overnight culture stimulated with 1 μM phosphorothioated CpG-DNA 1668 (SEQ ID NO:1), 1 μM non-CpG-DNA 1668GC (SEQ ID NO:3), 1 μg/ml Pam[…][…] or 1 μg/ml PHCK4 for further 8 hours. […] Stimulated cells were lysed using reporter lysis buffer (Promega, Mannheim, Germany) and lysates were assayed for luciferase activity using a Berthold luminometer (Wildbad, Germany) according to the manufacturer's instruction.

murine TLR2 = experiment: NF-κB luciferase assay, HEK 293 cells transfected with murine TLR2; format: cell-based; conditions: TLR2-transfected HEK 293 cells, 1 μg/ml Pam3Cys

In the case of “S-(2,3-bis(palmitoyloxy)-(2-RS)-propyl)-N-palmitoyl-(R)-Cys-(S)-Ser-(S)-Lys(4) (Palmitoyl-C(X1)SKKKK; also: biotinylated (site not given here)) [Pam3Cys]”, the “Binding of TLR2 to Pam3Cys” value [1] is reported as “specific”.

In the case of CO/C1=C\C(C)=C\[C@@H](C)[C@@H](O)[C@@H](C)C/C(C)=C/C=C/[C@H](OC)[C@@H]([C@@H](C)[C@@H](O)[C@H](C)[C@@]2(O)C[C@@H](O)[C@H](C)[C@@H](C(C)C)O2)OC1=O [bafilomycin A1], the “inhibition of binding of TLR9 to CpG-DNA” value (TLR9-CpG-DNA interaction) is reported as “did not influence” and the “inhibition of TLR9-driven NF-κB activation” value (murine TLR9) is reported as “inhibited cell activation”.

CCN(CC)CCCC(C)Nc1ccnc2cc(Cl)ccc12 (stereo not drawn) [chloroquine] was tested, and the “inhibition of binding of TLR9 to CpG-DNA” value (TLR9-CpG-DNA interaction) was “dose-dependently inhibit”, the “inhibition of TLR9-driven NF-κB activation” value (murine TLR9) was “dose-dependently inhibit” and the “inhibition of Pam3Cys-driven cellular activation” value (murine TLR2) was “inhibited neither”.
